{SH} = thiol (OH replaced by SH), used for disulfide linkage to DM1
What was measured:
[1] = system: HER2-negative breast cancer cell lines (MCF7, T47D); test: Apoptosis rate (sub-G1%) by PI DNA content flow cytometry, HER2-negative cell lines; type: cell-based; conditions: 10 nM, 72 hr (FIG. 5)
Procedure: (§1) Thereafter, the apoptosis rate (sub-G1%) of cancer cells was measured through DNA content analysis using flow cytometry.
(§2) (2) Typically, the cell cycle includes, depending on the amount of DNA in cells, G1 (cell growth phase)-S (cell replication phase)-G2/M (cell mitotic phase). […] The results of apoptosis are represented by the percentage of sub-G1 in the cell cycle.

[2] = system: HER2-positive breast cancer BT474 cell line and HER2-negative breast cancer T47D cell line, co-cultured 1:1; test: p-His3 (mitotic arrest marker) ICC in co-cultured HER2-positive and HER2-negative cells; type: cell-based; conditions: for expression of p-His3 depending on HER2 expression (confocal images): BT474/T47D co-culture 1:1, 10 nM, 24 hr (FIG. 3)
Procedure: (2) HER2 and a mitotic arrest marker, namely phospho-Histone H3 (p-His3), were stained with ICC, and the HER2-positive breast cancer BT474 cell line and the HER2-negative breast cancer T47D cell line, the nuclei of which were stained with DAPI, were co-cultured at a ratio of 1:1 and treated with a control (DMSO), DM1, and Aptamer-DM1 at a concentration of 10 nM for 24 hr. Thereafter, the nuclei (blue), p-His3 (green), and HER2 (red) were imaged using a confocal microscope. The number of cells in which p-His3 was detected was quantified based on whether HER2 was expressed or not.

[3] = system: HER2-positive breast cancer cell lines (SKBR3, BT474, MDA-MB-453); test: Apoptosis rate (sub-G1%) by PI DNA content flow cytometry, HER2-positive cell lines; type: cell-based; conditions: 10 nM, 72 hr (FIG. 5); for apoptosis rate (sub-G1%): HER2-positive cell lines SKBR3, BT474, MDA-MB-453
Procedure: as §1, §2

HER2 = target: T1, HER2 (Homo sapiens, UniProt P04626); test: Confocal ICC of HER2 localisation / cellular internalization in BT474 cells; type: cell-based; conditions: BT474 cell line, 10 nM, 48 hr, confocal microscope (FIGS. 2A to 2L)
T1 construct: endogenous in cells; host or cells: BT474 breast cancer cells
Procedure: (2) The cells cultured on 8-well chamber slides were fixed with 4% paraformaldehyde, washed with PBS, and cultured for 10 min with 0.2% Triton X-100. Thereafter, the cells were cultured overnight at 4° C. with primary antibodies in an antibody dilution buffer and then cultured at room temperature for 2 hr with fluorescence-conjugated secondary antibodies. Thereafter, the cells were mounted on ProLong Gold Antifade Reagent containing DAPI (4′,6′-diamidine-2′-phenylindole dihydrochloride). Particularly, each of the cultured breast cancer cell lines was subjected to immunocytochemistry (ICC) using a HER2 antibody, the nucleus thereof was stained with DAPI, and HER2 (red) and nucleus (blue) regions were imaged using a confocal microscope.
(1) ICC was performed using the HER2 antibody.

JIMT-1 cell line = test: Western blot of HER family / AKT signalling in JIMT-1 cells; type: cell-based; conditions: JIMT-1, 10 nM, 72 hr, compared to control, DM1 and Aptamer (FIG. 10)
[4] = system: Trastuzumab-resistant BT474 cell line (BT474-Tra); test: Western blot of HER family / AKT signalling in Trastuzumab-resistant BT474 cells; type: cell-based; conditions: 10 nM
Procedure: For the BT474 and BT474-Tra cell lines, the expression of p185HER2, p95HER2, p-HER2, p-p95HER2, HERS, p-HER3, total-AKT, p-AKT, and PARP was analyzed via Western blot. Cell viability was measured using a CellTiter 96* Aqueous One Solution Cell Proliferation Assay [MTS, 3-(4,5-dimethylthiazol-2-yl)-5-(3-carboxymethoxyphenyl)-2-(4-sulfophenyl)-2H-tetrazolium], and the amount of produced formazan was determined by measuring absorbance at 490 nm using a Spectramax Plus 384 microplate analyzer. In the Western blot, the above cells were lysed in a lysis buffer (30 mM NaCl, 0.5% Triton X-100, 50 mM Tris-HCl; pH 7.4) containing phosphatase and a protease inhibitor, and the supernatant was collected and then the protein was […] using a Bradford protein assay kit. 30 μg of the protein was subjected to SDS-PAGE and electrophoresed with a nitrocellulose membrane. The membrane was cultured overnight at 4° C. with primary antibodies diluted in bovine serum albumin (BSA) and then cultured with horseradish peroxidase (HRP)-conjugated rabbit IgG (1:3000-1:10,000). Signal intensity was measured using an Enhanced Chemiluminescence Kit and an X-ray film, and quantified with AlphaEaseFC software.

JIMT-1 cells = test: Drug-resistant disease animal model, JIMT-1 tumors (tumor volume, bioluminescence imaging); type: in vivo, BALB/c nude mice
Procedure: (§3) Thereafter, the tumor volume was measured for 15 days. The results are shown in FIG. 11, and the results of in-vivo bioluminescence imaging of JIMT-1-transplanted mice are shown in FIG. 12. In-vivo bioluminescence imaging was performed in a manner in which the mice were anesthetized and administered with 150 mg/kg of luciferin, after which the tumor size and the transition state were measured using a bioluminescence imaging system.

[5] = system: HER2-positive BT474 tumors (compared with HER2-negative T47D tumors); test: Breast cancer animal model, tumor volume and TUNEL assay; type: in vivo, BALB/c nude mice; conditions: 1 mg/kg, 2 mg/kg intraperitoneally three times a week
Procedure: (1) To the fourth breast fat pads of immunodeficient 6-week-old female BALB/c nude mice, HER2-positive BT474 cancer cells (3×10^6 cells) and HER2-negative T47D cancer cells (3×10^6 cells) were transplanted, after which Aptamer-DM1 (1 mg/kg, 2 mg/kg, body weight) was intraperitoneally administered three times a week. Then, the tumor volume was measured for 18 days. The tumor volume (V) was measured using a caliper and calculated according to V=(length×width^2)/2. In the TUNEL assay, the tumors were removed from the mice, fixed with 10% neutral-buffered formalin and embedded in paraffin. The 4 μm thick tissue section was mounted on a positively charged glass slide, deparaffinized with xylene, and […] through a graded alcohol series. After antigen retrieval, the above tissue section was boiled in a citric acid buffer (pH 6.0) and immunofluorescence was performed. In situ TUNEL was performed on the above tissue section using a TUNEL kit (Roche Applied Sciences, Penzberg, GER), and the images thereof were obtained using a confocal scanning microscope.

BT474-Tra cells = test: Drug-resistant disease animal model, BT474-Tra tumors; type: in vivo, BALB/c nude mice; conditions: BT474-Tra transplanted mice, 1 mg/kg intraperitoneally, 15 days (FIG. 11)
Procedure: as §3

[6] = BT474/T47D co-culture, 10 nM, 24 hr (FIG. 4)

| Compound | apoptosis rate (sub-G1%) [1] | expression of p-His3 depending on HER2 expression (confocal images) [2] | proportions of cells in which p-His3 was detected, HER2-positive cell line versus HER2-negative cell line [2, 6] | apoptosis rate (sub-G1%) [3] | HER2 localisation (cell membrane expression vs cellular internalization) (HER2) | expression of full-length p185HER2, phospho-HER2 (Tyr1221), HER3, phospho-HER3, AKT and phospho-Akt (Ser 43) (JIMT-1 cell line) | expression of p95HER2 ([4]; BT474-Tra cells, 72 hr (FIG. 10)) | expression of full-length p185HER2, phospho-HER2 (Tyr1221), HER3, phospho-HER3, AKT and phospho-Akt (Ser 43) ([4]; BT474-Tra, 72 hr, compared to control, DM1 and Aptamer (FIG. 10)) | proportion of cells in which p-His3 was detected, HER2-negative cell line [2, 6] | proportion of cells in which p-His3 was detected, HER2-positive cell line [2, 6] | apoptosis rate compared to the DM1-treated group ([3]; HER2-positive cell lines) | luciferin intensity (in-vivo bioluminescence imaging) (JIMT-1 cells; JIMT-1-transplanted mice, 1 mg/kg intraperitoneally (FIG. 12)) | tumor volume (JIMT-1 cells; JIMT-1 transplanted mice, 1 mg/kg intraperitoneally, 15 days (FIG. 11)) | tumor growth (tumor volume) ([5]; 18 days, BT474 and T47D transplanted tumors (FIG. 6)) | apoptosis in tumors (TUNEL assay) ([5]; BT474 and T47D tumors (FIG. 7)) | tumor volume (BT474-Tra cells) |
| --- | --- | --- | --- | --- | --- | --- | --- | --- | --- | --- | --- | --- | --- | --- | --- | --- |
| COc1cc2cc(c1Cl)N(C)C(=O)C[C@H](OC(=O)[C@H](C)N(C)C(C)=O)[C@]1(C)O[C@H]1[C@H](C)[C@@H]1C[C@@](O)(NC(=O)O1)[C@H](OC)/C=C/C=C(\C)C2 [DM1, maytansine, reference compound] | relatively high apoptosis rate | found regardless of whether HER2 was expressed or not | not significantly different | relatively high apoptosis rate | expression of HER2 on the cell membrane was observed | – | – | – | – | – | – | – | – | – | – | – |
| Aptamer-DM1: HER2-binding RNA aptamer (SEQ ID NO:1, 3′ thiol, 2′-O-methyl) linked via disulfide bonding to anticancer drug DM1 (GGGAGGACGAUGCGGGACUGUACGGGGCUCUGUGCAGACGACUCGCCCGA; 3' {SH}, sugars by position and backbone not given here; 2'-O-methyl modified, 3' thiol disulfide-linked to DM1) | low | detected only in the cells in which HER2 was expressed | – | high | cellular internalization of HER2 from the cell membrane was observed | significantly reduced | strongly inhibited | significantly reduced | considerably decreased | remarkably increased | high apoptosis rate in the HER2-positive cell lines compared to the DM1-treated group | remarkably decreased | significantly reduced the tumor volume | significantly decreased only the growth of HER2-positive BT474 tumors | effectively induced apoptosis only in the HER2-positive BT474 tumors | significantly reduced the tumor volume |

— patent US20180050114A1, “HER2 APTAMER-ANTICANCER DRUG COMPLEX FOR CANCER CELL CHEMOTHERAPY” (priority 2016, published 2018)
